The numbers were not newly measured in patent US20260014261A1, “TARGETED PROTEIN MODIFICATION” (Weatherwax Biotechnologies Corporation, priority 2022, published 2026), which cites them from elsewhere.

Each structure is given as a SMILES string.

For the data set, the target named is p53 (Homo sapiens, UniProt P04637). The note with it: read-out: binding affinity (Kd) for p53.
Sequence of p53 (P04637 whole entry): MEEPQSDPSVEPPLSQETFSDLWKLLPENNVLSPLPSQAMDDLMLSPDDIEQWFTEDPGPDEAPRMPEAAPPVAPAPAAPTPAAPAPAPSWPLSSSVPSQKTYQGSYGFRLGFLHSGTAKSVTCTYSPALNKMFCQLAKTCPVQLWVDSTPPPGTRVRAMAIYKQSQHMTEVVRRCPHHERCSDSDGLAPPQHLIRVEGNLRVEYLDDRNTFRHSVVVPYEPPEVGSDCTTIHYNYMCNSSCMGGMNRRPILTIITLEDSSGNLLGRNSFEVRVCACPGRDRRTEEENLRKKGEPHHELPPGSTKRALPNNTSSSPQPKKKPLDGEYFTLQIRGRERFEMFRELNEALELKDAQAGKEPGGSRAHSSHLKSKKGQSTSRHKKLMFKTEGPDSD

In the case of `CN(C)CCCNc1nc(CN2CCN(C(c3ccc(Cl)cc3)c3ccc(Cl)cc3)CC2)nc2ccccc12` [SCH 529074], the Kd (commonly a measure of binding affinity in units of concentration) was approximately 1 µM.
